Assay results: patent publication US20090017010A1, “NOVEL ARTEMIS/DNA-DEPENDENT PROTEIN KINASE COMPLEX AND METHODS OF USE THEREOF” (University of Southern California, priority 2002, published 2009)

Key:
Artemis:DNA-PKcs complex = target: T1, Artemis:DNA-PKcs complex (Homo sapiens, UniProt P78527); test: In vitro nuclease assay: effect of a DNA-PKcs inhibitor and of ATP analogs on hairpin opening; assay type: biochemical; conditions: for effect of DNA-PKcs (conferring hairpin opening activity on Artemis) when analog is used instead of ATP: 1 mM ATP analog, DFL16.1 hairpin, FIG. 5B lanes 5, 6
T1 construct: Native DNA-PKcs was purified as described (Chan et al., 1996) except that HeLa cells were used as the source; made in house; host or cells: Artemis-myc-His: transfected 293T cells (Ni-NTA, then anti-myc immunobeads); DNA-PKcs: endogenous protein purified from HeLa cells
T1 sequence (P78527 whole entry): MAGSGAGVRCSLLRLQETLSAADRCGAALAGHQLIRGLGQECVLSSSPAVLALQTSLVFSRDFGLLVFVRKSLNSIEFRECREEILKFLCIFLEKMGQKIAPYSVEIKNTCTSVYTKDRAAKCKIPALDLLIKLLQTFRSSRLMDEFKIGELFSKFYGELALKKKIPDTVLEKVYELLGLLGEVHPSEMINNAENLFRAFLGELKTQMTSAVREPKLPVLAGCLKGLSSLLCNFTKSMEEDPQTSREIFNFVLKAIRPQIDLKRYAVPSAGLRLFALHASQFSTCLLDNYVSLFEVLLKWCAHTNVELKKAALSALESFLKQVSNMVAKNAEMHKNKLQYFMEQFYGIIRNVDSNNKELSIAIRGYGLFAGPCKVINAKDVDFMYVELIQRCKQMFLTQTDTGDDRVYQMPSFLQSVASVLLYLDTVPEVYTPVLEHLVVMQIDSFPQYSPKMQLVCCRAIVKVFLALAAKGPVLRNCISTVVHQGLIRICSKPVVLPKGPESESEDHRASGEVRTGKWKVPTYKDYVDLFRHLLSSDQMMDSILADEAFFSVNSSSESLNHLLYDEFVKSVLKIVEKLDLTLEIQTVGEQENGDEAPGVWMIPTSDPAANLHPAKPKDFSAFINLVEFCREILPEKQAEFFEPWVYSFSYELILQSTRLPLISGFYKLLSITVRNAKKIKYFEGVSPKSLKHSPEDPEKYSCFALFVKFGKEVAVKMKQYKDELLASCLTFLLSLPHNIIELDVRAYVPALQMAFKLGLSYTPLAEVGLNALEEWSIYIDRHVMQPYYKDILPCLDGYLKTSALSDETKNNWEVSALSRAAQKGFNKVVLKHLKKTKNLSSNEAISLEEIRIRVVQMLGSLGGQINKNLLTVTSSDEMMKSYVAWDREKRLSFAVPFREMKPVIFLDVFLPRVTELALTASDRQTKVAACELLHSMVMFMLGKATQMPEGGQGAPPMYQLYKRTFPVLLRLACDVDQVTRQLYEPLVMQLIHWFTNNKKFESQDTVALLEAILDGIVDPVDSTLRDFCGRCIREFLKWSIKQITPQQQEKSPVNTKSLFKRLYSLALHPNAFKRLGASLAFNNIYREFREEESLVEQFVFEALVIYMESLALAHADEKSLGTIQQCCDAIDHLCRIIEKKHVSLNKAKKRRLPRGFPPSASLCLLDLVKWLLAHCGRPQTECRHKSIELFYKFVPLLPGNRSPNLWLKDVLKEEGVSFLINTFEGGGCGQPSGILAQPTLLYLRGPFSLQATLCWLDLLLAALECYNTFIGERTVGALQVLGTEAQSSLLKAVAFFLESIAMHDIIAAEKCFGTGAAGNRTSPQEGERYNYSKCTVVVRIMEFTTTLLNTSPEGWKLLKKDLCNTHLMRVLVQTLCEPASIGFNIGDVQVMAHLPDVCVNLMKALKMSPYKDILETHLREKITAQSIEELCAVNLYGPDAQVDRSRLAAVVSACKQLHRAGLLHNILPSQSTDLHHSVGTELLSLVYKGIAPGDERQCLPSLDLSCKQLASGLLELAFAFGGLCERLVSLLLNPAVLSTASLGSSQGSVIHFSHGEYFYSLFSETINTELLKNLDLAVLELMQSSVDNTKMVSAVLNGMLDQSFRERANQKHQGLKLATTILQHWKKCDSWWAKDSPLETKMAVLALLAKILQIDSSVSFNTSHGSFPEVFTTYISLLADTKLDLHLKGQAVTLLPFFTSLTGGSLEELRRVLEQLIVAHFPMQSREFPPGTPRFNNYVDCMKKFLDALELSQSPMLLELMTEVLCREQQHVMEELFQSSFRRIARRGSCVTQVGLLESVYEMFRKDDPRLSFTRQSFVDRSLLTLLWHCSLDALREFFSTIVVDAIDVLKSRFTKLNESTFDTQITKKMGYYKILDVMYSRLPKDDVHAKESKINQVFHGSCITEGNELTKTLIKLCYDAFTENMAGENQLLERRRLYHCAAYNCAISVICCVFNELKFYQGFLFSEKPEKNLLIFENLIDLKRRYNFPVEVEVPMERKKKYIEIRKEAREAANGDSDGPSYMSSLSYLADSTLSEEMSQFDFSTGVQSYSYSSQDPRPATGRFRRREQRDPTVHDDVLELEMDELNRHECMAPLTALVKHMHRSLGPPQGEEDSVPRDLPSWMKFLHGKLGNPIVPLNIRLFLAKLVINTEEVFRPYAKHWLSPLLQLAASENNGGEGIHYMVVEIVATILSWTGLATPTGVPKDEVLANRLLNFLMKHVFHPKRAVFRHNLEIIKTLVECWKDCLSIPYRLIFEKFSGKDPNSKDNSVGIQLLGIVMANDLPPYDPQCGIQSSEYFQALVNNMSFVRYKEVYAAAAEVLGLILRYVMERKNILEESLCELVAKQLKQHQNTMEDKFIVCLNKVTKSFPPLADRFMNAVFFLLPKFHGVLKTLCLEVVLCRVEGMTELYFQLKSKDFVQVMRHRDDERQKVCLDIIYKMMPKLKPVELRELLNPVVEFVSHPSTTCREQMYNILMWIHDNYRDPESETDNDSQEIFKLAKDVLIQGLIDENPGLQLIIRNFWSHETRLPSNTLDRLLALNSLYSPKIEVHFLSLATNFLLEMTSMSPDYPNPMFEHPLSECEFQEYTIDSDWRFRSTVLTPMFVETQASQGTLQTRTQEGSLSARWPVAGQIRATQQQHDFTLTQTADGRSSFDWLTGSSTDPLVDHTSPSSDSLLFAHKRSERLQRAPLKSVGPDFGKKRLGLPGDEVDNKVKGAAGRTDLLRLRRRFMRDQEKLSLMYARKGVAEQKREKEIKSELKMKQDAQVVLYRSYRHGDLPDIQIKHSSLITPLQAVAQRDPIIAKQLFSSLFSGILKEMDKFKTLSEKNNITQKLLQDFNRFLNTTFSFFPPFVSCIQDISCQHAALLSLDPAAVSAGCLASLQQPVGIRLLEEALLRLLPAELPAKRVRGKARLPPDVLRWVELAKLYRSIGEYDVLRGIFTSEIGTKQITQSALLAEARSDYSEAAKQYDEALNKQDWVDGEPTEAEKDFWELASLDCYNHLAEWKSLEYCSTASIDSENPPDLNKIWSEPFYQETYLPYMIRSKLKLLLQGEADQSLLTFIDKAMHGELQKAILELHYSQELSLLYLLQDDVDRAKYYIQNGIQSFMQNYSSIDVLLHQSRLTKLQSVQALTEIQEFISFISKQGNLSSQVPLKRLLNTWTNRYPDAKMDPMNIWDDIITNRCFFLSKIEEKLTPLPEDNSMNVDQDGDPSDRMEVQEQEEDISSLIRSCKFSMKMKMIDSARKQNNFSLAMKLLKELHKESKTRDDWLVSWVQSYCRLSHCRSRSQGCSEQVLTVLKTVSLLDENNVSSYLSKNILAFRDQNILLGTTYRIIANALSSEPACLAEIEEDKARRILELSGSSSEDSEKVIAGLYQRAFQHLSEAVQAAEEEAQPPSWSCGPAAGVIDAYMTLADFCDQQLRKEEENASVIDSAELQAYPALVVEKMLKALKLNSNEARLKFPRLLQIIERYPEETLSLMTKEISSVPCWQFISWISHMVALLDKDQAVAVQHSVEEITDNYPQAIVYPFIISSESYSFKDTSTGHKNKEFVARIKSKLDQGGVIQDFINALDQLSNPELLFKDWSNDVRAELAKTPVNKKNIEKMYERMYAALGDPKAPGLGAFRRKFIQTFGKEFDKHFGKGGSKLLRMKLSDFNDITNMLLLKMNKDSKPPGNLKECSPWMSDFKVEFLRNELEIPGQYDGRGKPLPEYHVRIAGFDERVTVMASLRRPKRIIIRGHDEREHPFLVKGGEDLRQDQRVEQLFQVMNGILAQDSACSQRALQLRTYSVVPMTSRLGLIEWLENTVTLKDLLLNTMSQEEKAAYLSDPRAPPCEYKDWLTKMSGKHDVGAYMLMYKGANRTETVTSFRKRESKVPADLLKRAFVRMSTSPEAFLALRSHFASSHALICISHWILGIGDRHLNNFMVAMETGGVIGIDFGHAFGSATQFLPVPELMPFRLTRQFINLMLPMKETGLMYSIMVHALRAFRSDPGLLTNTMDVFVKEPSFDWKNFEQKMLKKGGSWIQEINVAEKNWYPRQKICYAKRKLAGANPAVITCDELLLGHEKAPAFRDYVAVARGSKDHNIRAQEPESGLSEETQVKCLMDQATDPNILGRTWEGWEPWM
T1 sequence (Q96SD1 whole entry partner): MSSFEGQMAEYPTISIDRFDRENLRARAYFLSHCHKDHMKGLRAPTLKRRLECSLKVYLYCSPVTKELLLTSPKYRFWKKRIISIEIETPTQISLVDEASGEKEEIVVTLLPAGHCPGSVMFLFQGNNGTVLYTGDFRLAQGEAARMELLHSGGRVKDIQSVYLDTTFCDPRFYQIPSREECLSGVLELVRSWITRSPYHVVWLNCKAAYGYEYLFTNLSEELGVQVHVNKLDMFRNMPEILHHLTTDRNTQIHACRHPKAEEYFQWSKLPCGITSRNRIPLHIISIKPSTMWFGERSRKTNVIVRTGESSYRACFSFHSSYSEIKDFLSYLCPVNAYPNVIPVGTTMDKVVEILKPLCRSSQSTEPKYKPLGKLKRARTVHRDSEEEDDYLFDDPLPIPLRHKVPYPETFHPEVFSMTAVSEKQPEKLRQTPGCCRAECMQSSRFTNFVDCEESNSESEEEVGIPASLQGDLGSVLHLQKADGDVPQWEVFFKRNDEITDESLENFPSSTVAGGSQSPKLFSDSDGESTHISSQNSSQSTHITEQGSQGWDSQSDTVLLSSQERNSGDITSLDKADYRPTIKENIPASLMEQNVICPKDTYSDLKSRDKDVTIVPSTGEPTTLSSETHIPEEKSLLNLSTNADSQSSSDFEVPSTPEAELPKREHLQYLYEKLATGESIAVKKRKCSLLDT
Description: (§1) Nuclease assays without RAGs were carried out in a total volume of 10 μL with a buffer composition of 25 mM Tris, pH 8.0, 10-50 mM NaCl or KCl, 10 mM MgCl2, 1 mM DTT, and 50 ng/μL of BSA unless otherwise specified. To the buffer mixture, Artemis was added to 2.75 pmol, and DNA-PKcs and Ku were added to 1.25 pmol each. 0.25 mM of ATP (or ADP, ATP-y-S, AMP-PNP) and […] of 35 bp DNA were included where DNA-PKcs was used. Reactions were incubated at 37° C. for 30 minutes. In reactions including DNA-PKcs inhibitors, reaction mixtures without the substrate were incubated on ice for 15 minutes before the addition of the substrate and the subsequent incubation at 37° C. In FIG. 7, pre-phosphorylation of Artemis-myc-His immunobeads was carried out under DNA-PK kinase assay conditions. After washing the treated immunobeads with buffer F for three times and the nuclease assay buffer for two times, the beads were used for the nuclease reactions. In the hairpin opening of RAG-generated hairpins (FIG. 8), the reactions contained 25 mM K-HEPES, pH 7.4, 50 mM KCl, 10 mM MgCl2, 1 mM DTT, 0.25 pmol of labeled 12-RSS double-stranded oligonucleotides (KY28/KY29) and an equal amount of unlabeled 23-RSS double-stranded oligonucleotides (KY36/KY37), 1 pmol of RAGs (assuming that the RAG complex consists of two RAG-1 and two RAG-2 subunits), 2 pmol of HMG1, 2.75 pmol of Artemis-myc-His, and 1.25 pmol of DNA-PKcs (with ATP and 35 bp DNA as described above). For the sequential reactions, substrates were incubated with RAG complex alone first at 37° C. for 60 minutes, extracted with or without phenol/chloroform, then Artemis-myc-His and DNA-PKcs were added, followed by another 30-minute incubation at 37° C. Reactions with the RAG complex, Artemis, and DNA-PKcs added simultaneously were incubated for 90 minutes at the same temperature. After incubation, reactions were stopped by adding an equal volume of formamide gel loading buffer and beating at 100° C. for 5 minutes. DNA was resolved on 12% denaturing polyacrylamide gels. […] Data was analyzed by ImageQuant software (v5.0). […]

20 bp hairpin (DFL16.1) = test: In vitro nuclease assay: hairpin opening by Artemis proteins; assay type: biochemical
Description: as §1

dsDNA = conditions: read-out: equilibrium binding affinity for dsDNA; cited from earlier work

Nc1ncnc2c1ncn2[C@@H]1O[C@H](COP(=O)(O)OP(=O)(O)O)[C@@H](O)[C@H]1O [ADP]
endonucleolytic activity on hairpins and 5′ ends, relative to ATP (Artemis:DNA-PKcs complex; ADP instead of ATP, 20 bp artificial GC hairpin with 6-nucleotide 5′ overhang, FIG. 7 lane 3): lower level of endonucleolytic activity

Nc1ncnc2c1ncn2[C@@H]1O[C@H](COP(=O)(O)OP(=O)(O)NP(=O)(O)O)[C@@H](O)[C@H]1O [AMP-PNP]
effect of DNA-PKcs (conferring hairpin opening activity on Artemis) when analog is used instead of ATP (Artemis:DNA-PKcs complex): largely suppressed

Nc1ncnc2c1ncn2[C@@H]1O[C@H](COP(=O)(O)OP(=O)(O)OP(O)(O)=S)[C@@H](O)[C@H]1O [ATP-γ-S]
effect of DNA-PKcs (conferring hairpin opening activity on Artemis) when analog is used instead of ATP (Artemis:DNA-PKcs complex): largely suppressed

Artemis: full-length human Artemis with C-terminal myc-His tag, expressed in 293T cells, used on immunobeads as the enzyme
hairpin opening (20 bp hairpin (DFL16.1); Artemis alone, without DNA-PKcs, FIG. 5A lane 2): No hairpin opening | hairpins opened during the time interval (20 bp hairpin (DFL16.1); with DNA-PKcs present, 37° C., 30 minutes, FIG. 5A lanes 4-6, said to be probably an underestimation): about 40%

D165N: D165N point mutant of Artemis, same expression vector as wild type
hairpin opening activity (20 bp hairpin (DFL16.1); in the presence of DNA-PKcs): lacks any hairpin opening activity

DNA-PKcs: native catalytic subunit of DNA-dependent protein kinase, 469 kDa, purified from HeLa cells
Kd (dsDNA): ~1 nM
